Experiment [1] relates to Indinavir resistant strain. The experiment in a line: Anti-virus activity IC50 against Indinavir resistant strain. In kind it is cell-based, HIV. The settings on record: Human immunodeficiency virus 1, read-out: Anti-virus activity IC50. The text has this: A drug resistant strain virus is a resistance strains induced in a cell culture system in vitro while maintaining infection in the presence of each medicament through generations.

Experiment [2] concerns Ritonavir resistant strain. The experiment is described as follows: Anti-virus activity IC50 against Ritonavir resistant strain. The experiment is classed as cell-based, HIV. The settings on record: Human immunodeficiency virus 1, read-out: Anti-virus activity IC50.

Values after ≈ are worked out from the molar mass of the structure shown.

For orientation: IC50 means the concentration that inhibits the measured activity by half. For `CSC[C@H](NC(=O)COc1cccc2cnccc12)C(=O)N[C@@H](Cc1ccccc1)[C@H](O)C(=O)N1CSC[C@H]1C(=O)NC(C)(C)C` [KNI-272, (R)-N-1,1-dimethylethyl-3-[(2S,3S)-2-hydroxy-3-[(R)-2-(5-isoquinolyloxyacetyl)amino-3-methylthiopropanoyl]amino-4-phenylbutanoyl]-1,3-thiazolidine-4-carboxyamide], the IC50 turned out to be 0.01 µg/mL (≈ 0.015 µM) in experiment [1] and 0.304 µg/mL (≈ 0.455 µM) in experiment [2].

The values above are taken from patent US20020068749A1, “AIDS REMEDY” (priority 1996, published 2002).
